PubChem BioAssay AID1259407 (Chemical Carcinogenesis Research Information System (CCRIS), 2018)
Calls of active or inactive are those of the source. The rule behind the calls is not given here.

System: CCRIS mutagenicity, Ames/micronucleus/aberration tests
Experiment: CCRIS mutagenicity studies
[1] = Test System: AMES SALMONELLA TYPHIMURIUM, Strain/Indicator: TA98, Metabolic Activation: NONE, Method: STANDARD PLATE
[2] = Test System: AMES SALMONELLA TYPHIMURIUM, Strain/Indicator: TA98, Metabolic Activation: RAT, LIVER, S-9, AROCLOR 1254, Method: STANDARD PLATE
[3] = Test System: AMES SALMONELLA TYPHIMURIUM, Strain/Indicator: TA100, Metabolic Activation: NONE, Method: STANDARD PLATE
[4] = Test System: AMES SALMONELLA TYPHIMURIUM, Strain/Indicator: TA100, Metabolic Activation: RAT, LIVER, S-9, AROCLOR 1254, Method: STANDARD PLATE
[5] = Test System: AMES SALMONELLA TYPHIMURIUM, Strain/Indicator: TA1535, Metabolic Activation: NONE, Method: STANDARD PLATE
[6] = Test System: AMES SALMONELLA TYPHIMURIUM, Strain/Indicator: TA1535, Metabolic Activation: RAT, LIVER, S-9, AROCLOR 1254, Method: STANDARD PLATE
[7] = Test System: AMES SALMONELLA TYPHIMURIUM, Strain/Indicator: TA1537, Metabolic Activation: NONE, Method: STANDARD PLATE
[8] = Test System: AMES SALMONELLA TYPHIMURIUM, Strain/Indicator: TA1537, Metabolic Activation: RAT, LIVER, S-9, AROCLOR 1254, Method: STANDARD PLATE
[9] = Test System: AMES SALMONELLA TYPHIMURIUM, Strain/Indicator: TA1538, Metabolic Activation: NONE, Method: STANDARD PLATE
[10] = Test System: AMES SALMONELLA TYPHIMURIUM, Strain/Indicator: TA1538, Metabolic Activation: RAT, LIVER, S-9, AROCLOR 1254, Method: STANDARD PLATE

For C=CCc1ccc(OC)cc1, the mutagenic call (Test System: AMES SALMONELLA TYPHIMURIUM, Strain/Indicator: TA98, Metabolic Activation: HAMSTER, LIVER, S-9, AROCLOR 1254 (10%), Method: PREINCUBATION) was “inactive; negative”, the mutagenic call (Test System: AMES SALMONELLA TYPHIMURIUM, Strain/Indicator: TA98, Metabolic Activation: NONE, Method: PREINCUBATION) was “inactive; negative” and the mutagenic call [1] was “inactive; negative”. The mutagenic call (Test System: AMES SALMONELLA TYPHIMURIUM, Strain/Indicator: TA98, Metabolic Activation: RAT, LIVER, S-9, AROCLOR 1254 (10%), Method: PREINCUBATION) was “inactive; negative”, the mutagenic call [2] was “inactive; negative” and the mutagenic call (Test System: AMES SALMONELLA TYPHIMURIUM, Strain/Indicator: TA100, Metabolic Activation: HAMSTER, LIVER, S-9, AROCLOR 1254 (10%), Method: PREINCUBATION) was “inactive; negative”. For the same compound, the mutagenic call (Test System: AMES SALMONELLA TYPHIMURIUM, Strain/Indicator: TA100, Metabolic Activation: NONE, Method: PREINCUBATION) was “inactive; negative”, the mutagenic call [3] was “inactive; negative” and the mutagenic call (Test System: AMES SALMONELLA TYPHIMURIUM, Strain/Indicator: TA100, Metabolic Activation: RAT, LIVER, S-9, AROCLOR 1254 (10%), Method: PREINCUBATION) was “inactive; negative”. For the same compound, the mutagenic call [4] was “inactive; negative”, the mutagenic call (Test System: AMES SALMONELLA TYPHIMURIUM, Strain/Indicator: TA1535, Metabolic Activation: HAMSTER, LIVER, S-9, AROCLOR 1254 (10%), Method: PREINCUBATION) was “inactive; negative” and the mutagenic call (Test System: AMES SALMONELLA TYPHIMURIUM, Strain/Indicator: TA1535, Metabolic Activation: NONE, Method: PREINCUBATION) was “inactive; negative”. The mutagenic call [5] was “inactive; negative”, the mutagenic call (Test System: AMES SALMONELLA TYPHIMURIUM, Strain/Indicator: TA1535, Metabolic Activation: PAPS, Method: STANDARD PLATE) was “inactive; negative” and the mutagenic call (Test System: AMES SALMONELLA TYPHIMURIUM, Strain/Indicator: TA1535, Metabolic Activation: RAT, LIVER, S-9, AROCLOR 1254 (10%), Method: PREINCUBATION) was “inactive; negative”. For the same compound, the mutagenic call (Test System: AMES SALMONELLA TYPHIMURIUM, Strain/Indicator: TA1535, Metabolic Activation: RAT, LIVER, S-9, AROCLOR 1254, PAPS, Method: STANDARD PLATE) was “active; positive”, the mutagenic call [6] was “inactive; negative” and the mutagenic call (Test System: AMES SALMONELLA TYPHIMURIUM, Strain/Indicator: TA1537, Metabolic Activation: HAMSTER, LIVER, S-9, AROCLOR 1254 (10%), Method: PREINCUBATION) was “inactive; negative”. For the same compound, the mutagenic call (Test System: AMES SALMONELLA TYPHIMURIUM, Strain/Indicator: TA1537, Metabolic Activation: NONE, Method: PREINCUBATION) was “inactive; negative”, the mutagenic call [7] was “inactive; negative” and the mutagenic call (Test System: AMES SALMONELLA TYPHIMURIUM, Strain/Indicator: TA1537, Metabolic Activation: RAT, LIVER, S-9, AROCLOR 1254 (10%), Method: PREINCUBATION) was “inactive; negative”. The mutagenic call [8] was “inactive; negative”, the mutagenic call [9] was “inactive; negative” and the mutagenic call [10] was “inactive; negative”. For the same compound, the mutagenic call (Test System: UDS RAT HEPATOCYTES, Strain/Indicator: THY INCORP, Metabolic Activation: NONE, Method: IN VITRO) was “active; positive” and the mutagenic call (Test System: UDS RAT HEPATOCYTES, Strain/Indicator: THY INCORP, Metabolic Activation: NONE, Method: IN VIVO) was “active; positive”.

O=C(O)c1cc(Cl)ccc1O was tested, and the mutagenic call [9] was “inactive; negative” and the mutagenic call (Test System: AMES SALMONELLA TYPHIMURIUM, Strain/Indicator: TA1538, Metabolic Activation: RAT,LIVER, S-9, AROCLOR 1254, Method: STANDARD PLATE) was “inactive; negative”.

For Nc1ncnc2c1ncn2/C=C/C=O, the mutagenic call (Test System: AMES SALMONELLA TYPHIMURIUM, Strain/Indicator: HISD3052, Metabolic Activation: NONE, Method: STANDARD PLATE) was “active; positive”.

Cc1cc(-c2ccc(N/N=C3/C(=O)c4c(N)cc(S(=O)(=O)O)cc4C=C3S(=O)(=O)O)c(C)c2)ccc1N/N=C1/C(=O)c2c(N)cc(S(=O)(=O)O)cc2C=C1S(=O)(=O)O was tested, and the mutagenic call (Test System: AMES SALMONELLA TYPHIMURIUM, Strain/Indicator: TA98, Metabolic Activation: HAMSTER, LIVER, S-9, Method: PREINCUBATION (PRIVAL METHOD)) was “active; positive”, the mutagenic call (Test System: AMES SALMONELLA TYPHIMURIUM, Strain/Indicator: TA100, Metabolic Activation: HAMSTER, LIVER, S-9, Method: PREINCUBATION (PRIVAL METHOD)) was “active; positive” and the mutagenic call [9] was “inactive; negative”. For the same compound, the mutagenic call (Test System: Ames Salmonella typhimurium, Strain/Indicator: TA98, Metabolic Activation: Rat, Liver, S-9, Sodium phenobarbitone, Method: Preincubation) was “inactive; negative, test conducted under both aerobic and anaerobic conditions”, the mutagenic call (Test System: Ames Salmonella typhimurium, Strain/Indicator: TA1538, Metabolic Activation: Rat, Liver, S-9, Sodium phenobarbitone, Method: Preincubation) was “inactive; negative, test conducted under both aerobic and anaerobic conditions” and the mutagenic call (Test System: Mouse lymphoma, Strain/Indicator: L5178Y (tk+/tk-), Metabolic Activation: None, Method: Suspension/plate) was “inactive; negative”. For the same compound, the mutagenic call (Test System: Mouse lymphoma, Strain/Indicator: L5178Y (tk+/tk-), Metabolic Activation: Rat, Liver, S-9, Aroclor 1254, Method: Suspension/plate) was “inactive; negative”.

With Nc1cc2c(O)c(N=Nc3ccc(N=Nc4ccc(S(=O)(=O)O)cc4)c4ccc(S(=O)O)cc34)c(S(=O)(=O)O)cc2cc1S(=O)(=O)O the mutagenic call [1] was “inactive; negative”, the mutagenic call [2] was “inactive; negative” and the mutagenic call [3] was “inactive; negative”. For the same compound, the mutagenic call [4] was “inactive; negative”, the mutagenic call [5] was “inactive; negative” and the mutagenic call [6] was “inactive; negative”. The mutagenic call [7] was “inactive; negative”, the mutagenic call [8] was “inactive; negative” and the mutagenic call [9] was “inactive; negative”. For the same compound, the mutagenic call [10] was “inactive; negative”.

For N#CC1CO1 (stereo not drawn), the mutagenic call (Test System: UDS HUMAN MAMMARY EPITHELIAL CELLS, Strain/Indicator: THY INCORP, Metabolic Activation: NONE, Method: AUTORADIOGRAPHY) was “active; positive” and the mutagenic call (Test System: UDS PRIMARY RAT HEPATOCYTES, Strain/Indicator: THY INCORP, Metabolic Activation: NONE, Method: AUTORADIOGRAPHY) was “inactive; negative”.
